Measurements from the NIST ThermoML archive (doi:10.1021/je800591u).
± gives the expanded uncertainty stated by the source.

Settings: Liquid, Ebulliometric method (Recirculating still)

C=C(C)C [2-methylpropene]
vapor or sublimation pressure (288.15 K): 223 ± 14 kPa | vapor or sublimation pressure (303.15 K): 352 ± 14 kPa | vapor or sublimation pressure (318.15 K): 536 ± 14 kPa | vapor or sublimation pressure (333.15 K): 785 ± 14 kPa | vapor or sublimation pressure (348.15 K): 1107 ± 15 kPa | vapor or sublimation pressure (363.15 K): 1515 ± 15 kPa

FC(C(F)(F)F)C(F)(F)F [1,1,1,2,3,3,3-heptafluoropropane]
vapor or sublimation pressure (288.15 K): 335 ± 14 kPa | vapor or sublimation pressure (303.15 K): 529 ± 14 kPa | vapor or sublimation pressure (318.15 K): 804 ± 14 kPa | vapor or sublimation pressure (333.15 K): 1176 ± 15 kPa | vapor or sublimation pressure (348.15 K): 1664 ± 16 kPa | vapor or sublimation pressure (363.15 K): 2294 ± 17 kPa
